Values quoted from earlier work, collected in paper PMC7395068, “The evolution of strategies to minimise the risk of human drug-induced liver injury (DILI) in drug discovery and development” (Archives of Toxicology, 2020).
Like-named read-outs stand apart in the source and are kept apart here. *1 amine or outer side, *2 acyl side, *3 side chain or, on linkers, in order; H or OH if unused. Where a SMILES comes first, the peptide text is derived from it. Bridges are numbered along the chain shown (N, C = ends). [ ]: non-standard residue; d: D form. The star is where a group is joined. hTyr(3S-OH,4S-OH,3'-OSO3H) = N[C@H](C(=O)O)[C@H](O)[C@@H](O)c1ccc(O)c(OS(=O)(=O)O)c1; Orn(4R-OH,5R-OH) = O=C([C@H](C[C@@H](O)[C@@H](O)N[*:3])N[*:1])[*:2]; Pro(3S-OH,4S-Me) = C[C@H]1CN[C@H](C(=O)O)[C@H]1O; X1 = CCCCCOc1ccc(-c2cc(-c3ccc(C(=O)*)cc3)no2)cc1; Gln(3R-OH) = NC(=O)C[C@@H](O)[C@H](N)C(=O)O; Hyp = O=C(O)[C@@H]1C[C@@H](O)CN1

Conditions: cited from earlier work
[1] = binary in vivo human DILI call, ref Chen 2016
[2] = human DILI, LTKB DILIrank category, ref Chen 2016
[3] = binary in vivo DILI call given beside the severity category, ref Chen 2016
[4] = human DILI concern category (LTKB DILIrank), ref Chen 2016

SMILES | DILI +VE (5-8), DILI -VE (-4) [1] | DILI severity category [2] | DILI +VE (5-8), DILI -VE (-4) [3] | DILI severity category [4] | other results
CC(C)[C@@H]1NC(=O)[C@H](CCCCN)NC(=O)[C@@H](Cc2c[nH]c3ccccc23)NC(=O)[C@H](Cc2ccc(O)cc2)NC(=O)[C@@H](NC(=O)[C@H](N)Cc2ccc3ccccc3c2)CSSC[C@@H](C(=O)N[C@H](C(N)=O)[C@@H](C)O)NC1=O [lanreotide acetate] | -VE | Ambiguous DILI-concern | – | – | –
Cc1c(OCC(F)(F)F)ccnc1C[S+]([O-])c1nc2ccccc2[nH]1 (centres unmarked) [lansoprazole] | +VE | vLess-DILI-Concern | – | – | –
O=C([O-])[O-].O=C([O-])[O-].O=C([O-])[O-].[La+3].[La+3] [lanthanum carbonate] | – | – | – | – | DILI +VE (5-8), DILI -VE (-4) (in vivo): -VE; DILI severity category (in vivo): vNo-DILI-Concern
Nc1cccc2c1CN(C1CCC(=O)NC1=O)C2=O (centres unmarked) [lenalidomide] | +VE | vLess-DILI-Concern | – | – | –
N#Cc1ccc(C(c2ccc(C#N)cc2)n2cncn2)cc1 [letrozole] | +VE | vLess-DILI-Concern | – | – | –
Nc1nc2c(c(=O)[nH]1)N(C=O)C(CNc1ccc(C(=O)N[C@@H](CCC(=O)O)C(=O)O)cc1)CN2 (some centres unmarked) [leucovorin] | -VE | vNo-DILI-Concern | – | – | –
CN1c2c(nc(N)[nH]c2=O)NC[C@@H]1CNc1ccc(C(=O)N[C@@H](CCC(=O)O)C(=O)O)cc1 [levomefolate calcium] | – | – | – | – | DILI +VE (5-8), DILI -VE (-4) (in vivo): -VE; DILI severity category (in vivo): vNo-DILI-Concern
C#C[C@]1(O)CC[C@H]2[C@@H]3CCC4=CC(=O)CC[C@@H]4[C@H]3CC[C@@]21CC [levonorgestrel] | – | – | – | – | DILI +VE (5-8), DILI -VE (-4) (in vivo): -VE; DILI severity category (in vivo): vNo-DILI-Concern
CN1CC[C@]23CCCC[C@H]2[C@H]1Cc1ccc(O)cc13 [levorphanol] | -VE | vNo-DILI-Concern | – | – | –
N[C@@H](Cc1cc(I)c(Oc2cc(I)c(O)c(I)c2)c(I)c1)C(=O)O [levothyroxine] | +VE | vLess-DILI-Concern | – | – | –
CCC[C@@H]1C[C@@H](C(=O)N[C@@H]([C@H]2O[C@H](SC)[C@H](O)[C@@H](O)[C@H]2O)[C@@H](C)O)N(C)C1 [lincomycin] | -VE | Ambiguous DILI-concern | – | – | –
CC(=O)NC[C@H]1CN(c2ccc(N3CCOCC3)c(F)c2)C(=O)O1 [linezolid] | – | – | – | – | DILI +VE (5-8), DILI -VE (-4) (in vivo): +VE; DILI severity category (in vivo): vLess-DILI-Concern
C[C@@H](Cc1ccccc1)NC(=O)[C@@H](N)CCCCN [lisdexamfetamine] | -VE | Ambiguous DILI-concern | – | – | –
O=NN(CCCl)C(=O)NC1CCCCC1 [lomustine] | – | – | – | – | DILI +VE (5-8), DILI -VE (-4) (in vivo): +VE; DILI severity category (in vivo): vLess-DILI-Concern
N[C@@H](C(=O)N[C@@H]1C(=O)N2C(C(=O)O)=C(Cl)CC[C@H]12)c1ccccc1 [loracarbef] | – | – | – | – | DILI +VE (5-8), DILI -VE (-4) (in vivo): +VE; DILI severity category (in vivo): vLess-DILI-Concern
O=C1Nc2ccc(Cl)cc2C(c2ccccc2Cl)=NC1O (centres unmarked) [lorazepam] | -VE | Ambiguous DILI-concern | – | – | –
CN1CCN(C2=Nc3ccccc3Oc3ccc(Cl)cc32)CC1 [loxapine] | – | – | – | – | DILI +VE (5-8), DILI -VE (-4) (in vivo): -VE; DILI severity category (in vivo): Ambiguous DILI-concern
OC[C@@H](O)[C@@H](O)[C@H](O)[C@H](O)CO [mannitol] | -VE | vNo-DILI-Concern | – | – | –
CCCCCc1cc(O)c2c(c1)OC(C)(C)[C@@H]1CCC(C)=C[C@@H]21 [marinol] | – | – | – | – | DILI +VE (5-8), DILI -VE (-4) (in vivo): -VE; DILI severity category (in vivo): Ambiguous DILI-concern
Cc1ccc(Cl)c(Nc2ccccc2C(=O)O)c1Cl [meclofenamic acid] | -VE | Ambiguous DILI-concern | – | – | –
N[C@@H](Cc1ccc(N(CCCl)CCCl)cc1)C(=O)O [melphalan] | +VE | vLess-DILI-Concern | – | – | –
CN1CCCC(CN2c3ccccc3Sc3ccccc32)C1 (centres unmarked) [mepazine] | +VE | vMost-DILI-Concern | – | – | –
C[N+]1(C)CCCC(OC(=O)C(O)(c2ccccc2)c2ccccc2)C1 (centres unmarked) [mepenzolate] | -VE | vNo-DILI-Concern | – | – | –

SMILES | DILI +VE (5-8), DILI -VE (-4) [1] | DILI severity category [2] | DILI +VE (5-8), DILI -VE (-4) [3] | DILI severity category [4] | other results
CCCC(C)(COC(N)=O)COC(N)=O [meprobamate] | -VE | vNo-DILI-Concern | – | – | –
O=S(=O)(O)CCS [mesna] | – | – | -VE | Ambiguous DILI-concern | –
CN1CCCCC1CCN1c2ccccc2Sc2ccc([S+](C)[O-])cc21 (centres unmarked) [mesoridazine] | – | – | -VE | Ambiguous DILI-concern | –
Cc1cc(C)cc(OCC2CNC(=O)O2)c1 (centres unmarked) [metaxalone] | – | – | +VE | vLess-DILI-Concern | –
CCC(=O)C(CC(C)N(C)C)(c1ccccc1)c1ccccc1 (centres unmarked) [methadone] | – | – | – | – | DILI +VE (5-8), DILI -VE (-4) (in vivo): -VE; DILI severity category (in vivo): Ambiguous DILI-concern
CC(=O)/N=c1/sc(S(N)(=O)=O)nn1C [methazolamide] | – | – | +VE | vLess-DILI-Concern | –
C1N2CN3CN1CN(C2)C3 [methenamine hippurate] | – | – | -VE | Ambiguous DILI-concern | –
C=CCC1(C(C)C#CCC)C(=O)N=C(O)N(C)C1=O (centres unmarked) [methohexital] | – | – | -VE | Ambiguous DILI-concern | –
CN1C(=O)CC(C)(c2ccccc2)C1=O (centres unmarked) [methsuximide] | – | – | -VE | vNo-DILI-Concern | –
C[N@+]1(CC2CC2)CC[C@]23c4c5ccc(O)c4O[C@H]2C(=O)CC[C@@]3(O)[C@H]1C5 [methylnaltrexone bromide] | – | – | -VE | vNo-DILI-Concern | –
COC(=O)C(c1ccccc1)C1CCCCN1 (centres unmarked) [methylphenidate] | – | – | – | – | DILI +VE (5-8), DILI -VE (-4) (in vivo): +VE; DILI severity category (in vivo): vLess-DILI-Concern
C[C@H]1C[C@@H]2[C@H]([C@@H](O)C[C@@]3(C)[C@H]2CC[C@]3(O)C(=O)CO)[C@@]2(C)C=CC(=O)C=C12 [methylprednisolone] | – | – | +VE | vLess-DILI-Concern | –
C[C@]12CCC(=O)C=C1CC[C@@H]1[C@@H]2CC[C@@]2(C)[C@H]1CC[C@]2(C)O [methyltestosterone] | – | – | +VE | vLess-DILI-Concern | –
CC[C@@H](CO)NC(=O)[C@@H]1C=C2c3cccc4c3c(cn4C)C[C@H]2N(C)C1 [methysergide] | – | – | -VE | vNo-DILI-Concern | –
Cc1ccccc1N1C(=O)c2cc(S(N)(=O)=O)c(Cl)cc2NC1C (centres unmarked) [metolazone] | – | – | -VE | Ambiguous DILI-concern | –
CC(C)(C(=O)c1cccnc1)c1cccnc1 [metyrapone] | – | – | -VE | vNo-DILI-Concern | –
CCCCCOc1ccc(-c2cc(-c3ccc(C(=O)N[C@H]4C[C@@H](O)[C@@H](O)NC(=O)[C@@H]5[C@@H](O)[C@@H](C)CN5C(=O)[C@H]([C@H](O)CC(N)=O)NC(=O)[C@H]([C@H](O)[C@@H](O)c5ccc(O)c(OS(=O)(=O)O)c5)NC(=O)[C@@H]5C[C@@H](O)CN5C(=O)[C@H]([C@@H](C)O)NC4=O)cc3)no2)cc1 [micafungin] (X1-[Orn(4R-OH,5R-OH)]T[Hyp][hTyr(3S-OH,4S-OH,3'-OSO3H)][Gln(3R-OH)][Pro(3S-OH,4S-Me)]; lactam 1-C) | – | – | +VE | vMost-DILI-Concern | –
OCCN1C[C@H](O)[C@@H](O)[C@H](O)[C@H]1CO [miglitol] | – | – | -VE | vNo-DILI-Concern | –
CCCCN1C[C@H](O)[C@@H](O)[C@H](O)[C@H]1CO [miglustat] | – | – | -VE | vNo-DILI-Concern | –
Clc1ccc(C(c2ccccc2Cl)C(Cl)Cl)cc1 (centres unmarked) [mitotane] | – | – | -VE | vNo-DILI-Concern | –
COc1cc2c(cc1OC)[C@@H](Cc1cc(OC)c(OC)c(OC)c1)[N+](C)(CCCOC(=O)CC/C=C/CCC(=O)OCCC[N+]1(C)CCc3cc(OC)c(OC)cc3[C@H]1Cc1cc(OC)c(OC)c(OC)c1)CC2 (some centres unmarked) [mivacurium] | – | – | -VE | vNo-DILI-Concern | –
CCOC(=O)[C@H](CCc1ccccc1)N[C@@H](C)C(=O)N1Cc2cc(OC)c(OC)cc2C[C@H]1C(=O)O [moexipril] | – | – | -VE | Ambiguous DILI-concern | –
CC(C)(O)c1ccccc1CC[C@@H](SCC1(CC(=O)O)CC1)c1cccc(/C=C/c2ccc3ccc(Cl)cc3n2)c1 [montelukast] | – | – | – | – | DILI +VE (5-8), DILI -VE (-4) (in vivo): +VE; DILI severity category (in vivo): vLess-DILI-Concern
